In patent publication US6462055B2, “Alpha-methylbenzyl-containing thiourea inhibitors of herpes viruses containing a phenylenediamine group” (Wyeth, priority 1998, dated 2002):
Converted amounts (≈) assume the structure as drawn.

What was measured:
[1] = tested on: HCMV recombinant mutant virus (RV145); assay: microbe, parasite or virus in culture; format: cell-based, human cytomegalovirus; settings: for IC50: Human betaherpesvirus 5, read-out: IC50 ug/ml HCMV, HCMV
Summary of the method: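 Read-out is beta-glucuronidase activity in cell lysates 96 h after infection, measured colorimetrically or fluorometrically. Reporter virus RV145 expresses the enzyme under a viral promoter in human foreskin fibroblasts treated with inhibitor.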

[2] = tested on: HSV-1; assay: HSV Antiviral (ELISA) Assay in Vero cells; format: cell-based, herpes simplex virus type 1; settings: HSV-1, Vero cells; for IC50: Human alphaherpesvirus 1, read-out: IC50 (ug/ml) HSV
Summary of the method: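 Viral replication was quantified by cell-fixed ELISA for HSV glycoprotein D, using a β-galactosidase reporter and fluorogenic umbelliferyl substrate, about 24 h after HSV-1 infection (MOI 0.006) of Vero cells. Compounds, at several concentrations, were added 30 min pre-infection. IC50 was derived from fluorescence relative to the compound-free signal.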

[3] = tested on: VZV strain Ellen; assay: VZV Antiviral (ELISA) Assay in human foreskin fibroblast cells; format: cell-based, varicella-zoster virus; settings: for IC50: read-out: IC50 (ug/ml) VZV
Summary of the method: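 Low-MOI (<0.1) Ellen infection of HFF overnight; cell mix plated 3.5×10^4/well with compound, DMEM + 2% FBS, 3 d, 37° C, 5% CO2. Fix, anti-gpII mAb ELISA, MUG substrate, fluorescence. IC50 vs compound-free signal.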

[4] = Human alphaherpesvirus 3, Fibroblast

Structure (SMILES): CC(C)c1cccc(NC(=S)Nc2ccc(NC(=O)c3ccccc3F)cc2)c1 [Example 452]
- IC50 ug/ml HCMV [1]: 2 µg/mL (≈ 4.91 µM)
- IC50 (ug/ml) HSV [2]: 4 µg/mL (≈ 9.82 µM)
- IC50 (ug/ml) VZV [3]: 1 µg/mL (≈ 2.45 µM)
- % inhibition 10 ug/ml VZV [3]: 75%

Structure (SMILES): Cc1ccc(NC(=S)Nc2ccc(NC(=O)c3ccccc3F)cc2Cl)cc1Cl [Example 459]
- IC50 ug/ml HCMV [1]: >10 µg/mL
- IC50 (ug/ml) HSV [2]: 0.12 µg/mL (≈ 0.268 µM)
- IC50 (ug/ml) VZV [3]: >10 µg/mL
- % inhibition 10 ug/ml VZV [3]: 25%

Structure (SMILES): CCOc1ccc(NC(=S)Nc2ccc(NC(=O)c3ccccc3F)cc2)cc1Cl [Example 806]
- IC50 ug/ml HCMV [1]: >10 µg/mL
- IC50 (ug/ml) HSV [2]: >10 µg/mL
- IC50 (ug/ml) VZV [3]: >7.5 µg/mL

Structure (SMILES): CS(=O)(=O)c1ccc(NC(=S)Nc2ccc(NC(=O)c3c(F)cccc3F)cc2)cc1Cl [Example 392]
- IC50 ug/ml HCMV [1]: 0.5 µg/mL (≈ 1.01 µM)
- IC50 (ug/ml) HSV [2]: >10 µg/mL
- IC50 (ug/ml) VZV [3]: 2 µg/mL (≈ 4.03 µM)
- % inhibition 10 ug/ml VZV [3]: 92%

Structure (SMILES): COC(=O)c1cccc(NC(=S)Nc2ccc(NC(=O)c3ccccc3F)cc2)c1 [Example 950, 3-{3-[4-(2-Fluoro-benzoylamino)-phenyl]-thioureido}-benzoic acid methyl ester]
- IC50 [1]: > 10 µg/mL
- IC50 [2]: 8 µg/mL (≈ 18.9 µM)
- IC50 [3, 4]: > 10 µg/mL

Structure (SMILES): CN(C)c1cccc(NC(=S)Nc2ccc(NC(=O)c3ccccc3F)cc2)c1 [Example 454]
- IC50 ug/ml HCMV [1]: 4 µg/mL (≈ 9.79 µM)
- IC50 (ug/ml) HSV [2]: 1.5 µg/mL (≈ 3.67 µM)
- IC50 (ug/ml) VZV [3]: >10 µg/mL
- % inhibition 10 ug/ml VZV [3]: 55%

Structure (SMILES): COc1cc(OC)c(NC(=S)Nc2ccc(NC(=O)c3ccccc3[N+](=O)[O-])cc2)cc1Cl [Example 143]
- IC50 ug/ml HCMV [1]: > 10 µg/mL
- IC50 (ug/ml) HSV [2]: 1 µg/mL (≈ 2.05 µM)
- IC50 (ug/ml) VZV [3]: >15 µg/mL
- % inhibition 10 ug/ml VZV [3]: 68%

Structure (SMILES): COc1cc(OC)c(NC(=S)Nc2ccc(NC(=O)c3ccccc3F)cc2)cc1Cl [Example 118]
- IC50 ug/ml HCMV [1]: 3 µg/mL (≈ 6.52 µM)
- IC50 (ug/ml) HSV [2]: 0.15 µg/mL (≈ 0.326 µM)
- IC50 (ug/ml) VZV [3]: >10 µg/mL

Structure (SMILES): COc1cc(OC)c(NC(=S)Nc2ccc(NC(=O)c3ccccc3O)cc2)cc1Cl [Example 139]
- IC50 ug/ml HCMV [1]: 6 µg/mL (≈ 13.1 µM)
- IC50 (ug/ml) HSV [2]: 6 µg/mL (≈ 13.1 µM)
- IC50 (ug/ml) VZV [3]: 4 µg/mL (≈ 8.73 µM)
- % inhibition 10 ug/ml VZV [3]: 95%

Structure (SMILES): Cc1ccccc1C(=O)Nc1ccc(NC(=S)Nc2ccc(N(C)C)c(Cl)c2)cc1 [Example 346]
- IC50 ug/ml HCMV [1]: 2 µg/mL (≈ 4.56 µM)
- IC50 (ug/ml) HSV [2]: 6 µg/mL (≈ 13.7 µM)
- IC50 (ug/ml) VZV [3]: >10 µg/mL
- % inhibition 10 ug/ml VZV [3]: 62%

Structure (SMILES): CN1CCC(N(C)c2ccc(NC(=S)Nc3ccc(NC(=O)c4c(F)cccc4F)cc3)cc2Cl)C1 (stereo not drawn) [Example 349]
- IC50 ug/ml HCMV [1]: 1.2 µg/mL (≈ 2.26 µM)
- IC50 (ug/ml) HSV [2]: 5 µg/mL (≈ 9.43 µM)
- IC50 (ug/ml) VZV [3]: 4 µg/mL (≈ 7.55 µM)
- % inhibition 10 ug/ml VZV [3]: 110%

Structure (SMILES): CN(C)CCSCC(=O)Nc1ccc(NC(=S)Nc2ccc(NC(=O)c3ccccc3F)cc2)cc1Cl [Example 373]
- IC50 ug/ml HCMV [1]: 6 µg/mL (≈ 10.7 µM)
- IC50 (ug/ml) HSV [2]: 9 µg/mL (≈ 16.1 µM)
- IC50 (ug/ml) VZV [3]: >10 µg/mL
- % inhibition 10 ug/ml VZV [3]: 4%

Structure (SMILES): CCCCOc1ccc(NC(=S)Nc2ccc(NC(=O)c3ccccc3F)cc2)cc1Cl [Example 809]
- IC50 ug/ml HCMV [1]: >10 µg/mL
- IC50 (ug/ml) HSV [2]: >10 µg/mL
- IC50 (ug/ml) VZV [3]: >7.5 µg/mL

Structure (SMILES): COc1cccc(C(=O)Nc2ccc(NC(=S)Nc3ccc(C)c(Cl)c3)cc2)c1 [Example 232]
- IC50 ug/ml HCMV [1]: >10 µg/mL
- IC50 (ug/ml) HSV [2]: 1 µg/mL (≈ 2.35 µM)
- IC50 (ug/ml) VZV [3]: >10 µg/mL
- % inhibition 10 ug/ml VZV [3]: 21%

Structure (SMILES): COc1cc(OC)c(NC(=S)Nc2ccc(NC(=O)c3ccccc3C)cc2)cc1Cl [Example 114]
- IC50 ug/ml HCMV [1]: 5 µg/mL (≈ 11 µM)
- IC50 (ug/ml) HSV [2]: 0.3 µg/mL (≈ 0.658 µM)
- IC50 (ug/ml) VZV [3]: >10 µg/mL
- % inhibition 10 ug/ml VZV [3]: 17%

Structure (SMILES): O=C(CN1CCCCCC1)Nc1ccc(NC(=S)Nc2ccc(NC(=O)c3ccccc3F)cc2)cc1Cl [Example 423]
- IC50 ug/ml HCMV [1]: 1 µg/mL (≈ 1.8 µM)
- IC50 (ug/ml) HSV [2]: 4 µg/mL (≈ 7.22 µM)
- IC50 (ug/ml) VZV [3]: 0.9 µg/mL (≈ 1.62 µM)
- % inhibition 10 ug/ml VZV [3]: 87%

Structure (SMILES): COCCOc1ccc(NC(=S)Nc2ccc(NC(=O)c3ccccc3F)cc2)cc1Cl [Example 996, N-(4-{3-[3-Chloro-4-(2-methoxy-ethoxy)-phenyl]-thioureido}-phenyl)-2-fluoro-benzamide]
- IC50 [1]: > 10 µg/mL
- IC50 [2]: > 10 µg/mL
- IC50 [3, 4]: 10 µg/mL (≈ 21.1 µM)

Structure (SMILES): O=C(Nc1ccc(NC(=S)NCCc2ccc(F)cc2)cc1)c1ccccc1F [Example 553]
- IC50 [1]: > 0.5 µg/mL
- IC50 [2]: > 10 µg/mL
- IC50 [3, 4]: 7 µg/mL (≈ 17 µM)

Structure (SMILES): Nc1cc(Cl)cc(NC(=S)Nc2ccc(NC(=O)c3ccccc3F)cc2)c1 [Example 442]
- IC50 ug/ml HCMV [1]: 2 µg/mL (≈ 4.82 µM)
- IC50 (ug/ml) HSV [2]: 1 µg/mL (≈ 2.41 µM)
- IC50 (ug/ml) VZV [3]: 8 µg/mL (≈ 19.3 µM)
- % inhibition 10 ug/ml VZV [3]: 81%

Structure (SMILES): CC(NC(=S)Nc1ccc(NC(=O)c2ccccc2F)cc1)c1ccc(N(C)C)cc1 (stereo not drawn) [Example 793]
- IC50 ug/ml HCMV [1]: 3.2 µg/mL (≈ 7.33 µM)
- IC50 (ug/ml) HSV [2]: 9 µg/mL (≈ 20.6 µM)
- IC50 (ug/ml) VZV [3]: 3.1 µg/mL (≈ 7.1 µM)

Structure (SMILES): CN(c1ccc(NC(=S)Nc2ccc(NC(=O)c3ccccc3F)cc2)cc1Cl)C1CCCCC1 [Example 238]
- IC50 ug/ml HCMV [1]: >10 µg/mL
- IC50 (ug/ml) HSV [2]: >10 µg/mL
- IC50 (ug/ml) VZV [3]: >10 µg/mL
- % inhibition 10 ug/ml VZV [3]: 38%

Structure (SMILES): CSc1ccc(NC(=S)Nc2ccc(NC(=O)c3ccccc3F)cc2Cl)cc1Cl [Example 460]
- IC50 ug/ml HCMV [1]: 2 µg/mL (≈ 4.16 µM)
- IC50 (ug/ml) HSV [2]: 0.09 µg/mL (≈ 0.187 µM)
- IC50 (ug/ml) VZV [3]: >10 µg/mL
- % inhibition 10 ug/ml VZV [3]: 50%

Structure (SMILES): CC(C)COc1ccc(NC(=S)Nc2ccc(NC(=O)c3ccccc3F)cc2)cc1Cl [Example 994, N-{4-[3-(3-Chloro-4-isobutoxy-phenyl)-thioureido]-phenyl}-2-fluoro-benzamide]
- IC50 [1]: > 10 µg/mL
- IC50 [2]: > 10 µg/mL
- IC50 [3, 4]: > 10 µg/mL

Structure (SMILES): COc1ccccc1C(=O)Nc1ccc(NC(=S)NC(C)c2ccc(C#N)cc2)cc1 (stereo not drawn) [Example 1017, N-(4-{3-[1-(4-Cyano-phenyl)-ethyl]-thioureido}-phenyl)-2-methoxy-benzamide]
- IC50 [1]: > 10 µg/mL
- IC50 [2]: > 10 µg/mL
- IC50 [3, 4]: 0.3 µg/mL (≈ 0.697 µM)

Structure (SMILES): CC(NC(=S)Nc1ccc(NC(=O)c2ccccc2Br)cc1)c1ccc(F)cc1 (stereo not drawn) [Example 795]
- IC50 ug/ml HCMV [1]: 4.1 µg/mL (≈ 8.68 µM)
- IC50 (ug/ml) HSV [2]: 8.6 µg/mL (≈ 18.2 µM)
- IC50 (ug/ml) VZV [3]: >7.5 µg/mL

Structure (SMILES): COc1cc(OC)c(NC(=S)Nc2ccc(NC(=O)c3ccccc3F)c(Cl)c2)cc1Cl [Example 278]
- IC50 ug/ml HCMV [1]: >10 µg/mL
- IC50 (ug/ml) HSV [2]: >10 µg/mL
- IC50 (ug/ml) VZV [3]: >10 µg/mL
- % inhibition 10 ug/ml VZV [3]: 15%

Structure (SMILES): O=C(Nc1ccc(NC(=S)Nc2cccc([N+](=O)[O-])c2)cc1)c1ccccc1F [Example 959, 2-Fluoro-N-{4-[3-(3-nitro-phenyl)-thioureido]-phenyl}-benzamide]
- IC50 [1]: > 10 µg/mL
- IC50 [2]: 0.7 µg/mL (≈ 1.71 µM)
- inhibition at 10 µg/mL ([3]; Human alphaherpesvirus 3, Fibroblast, read-out: % inhibition 10 ug/ml VZV, 10 ug/ml): 33%
- IC50 [3, 4]: > 10 µg/mL

Structure (SMILES): COc1cc(OC)c(NC(=S)Nc2ccc(NC(=O)c3cccc(OC(C)=O)c3)cc2)cc1Cl [Example 253]
- IC50 ug/ml HCMV [1]: 8 µg/mL (≈ 16 µM)
- IC50 (ug/ml) HSV [2]: 1.2 µg/mL (≈ 2.4 µM)
- IC50 (ug/ml) VZV [3]: 6 µg/mL (≈ 12 µM)
- % inhibition 10 ug/ml VZV [3]: 100%

Structure (SMILES): CN(C)c1c(Cl)cccc1NC(=S)Nc1ccc(NC(=O)c2c(F)cccc2F)cc1 [Example 504]
- IC50 ug/ml HCMV [1]: 2 µg/mL (≈ 4.34 µM)
- IC50 (ug/ml) HSV [2]: 6 µg/mL (≈ 13 µM)
- IC50 (ug/ml) VZV [3]: 4.5 µg/mL (≈ 9.76 µM)
- % inhibition 10 ug/ml VZV [3]: 99%

Structure (SMILES): Nc1ccc(NC(=S)Nc2ccc(NC(=O)c3ccccc3F)cc2)cc1Cl [Example 404]
- IC50 ug/ml HCMV [1]: 8 µg/mL (≈ 19.3 µM)
- IC50 (ug/ml) HSV [2]: 0.4 µg/mL (≈ 0.964 µM)
- IC50 (ug/ml) VZV [3]: >10 µg/mL
- % inhibition 10 ug/ml VZV [3]: 15%

Structure (SMILES): CC(O)c1cccc(NC(=S)Nc2ccc(NC(=O)c3ccccc3F)cc2)c1 (stereo not drawn) [Example 448]
- IC50 ug/ml HCMV [1]: 9 µg/mL (≈ 22 µM)
- IC50 (ug/ml) HSV [2]: >10 µg/mL
- IC50 (ug/ml) VZV [3]: >10 µg/mL
- % inhibition 10 ug/ml VZV [3]: 0%
